Data taken from ChEMBL document CHEMBL1201862, “PubChem BioAssay data set” (2004).
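Test compounds were applied to cells in 96-well plates for 48 hours at 5 doses. At the GI50, growth is halved.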 Active and inactive are the calls of the source. Rule as the data show it: active = GI50 up to about 1.1 µM and inactive = higher.

Columns and labels:
Assay in all cases: NCI anticancer screen, dose series, 48 h
HOP-62 = test system: HOP-62
MDA-MB-231 = test system: MDA-MB-231
UACC-257 = test system: UACC-257
IGROV-1 = test system: IGROV-1
SW-620 = test system: SW-620
NCI-H226 = test system: NCI-H226
MDA-MB-435 = test system: MDA-MB-435
NCI-H522 = test system: NCI-H522
SK-MEL-2 = test system: SK-MEL-2
SK-OV-3 = test system: SK-OV-3
M14 = test system: M14
HCT-15 = test system: HCT-15
OVCAR-8 = test system: OVCAR-8
T47D = test system: T47D
CCRF-CEM = test system: CCRF-CEM
UO-31 = test system: UO-31
SF-539 = test system: SF-539
NCI-H460 = test system: NCI-H460
Malme-3M = test system: Malme-3M
RXF 393 = test system: RXF 393

Row | SMILES | GI50 (HOP-62) | GI50 (MDA-MB-231) | GI50 (UACC-257) | GI50 (IGROV-1) | GI50 (SW-620) | GI50 (NCI-H226) | GI50 (MDA-MB-435) | GI50 (NCI-H522) | GI50 (SK-MEL-2) | GI50 (SK-OV-3) | GI50 (M14) | GI50 (HCT-15) | GI50 (OVCAR-8) | GI50 (T47D) | GI50 (CCRF-CEM) | GI50 (UO-31) | GI50 (SF-539) | GI50 (NCI-H460) | GI50 (Malme-3M) | GI50 (RXF 393)
1 | CC(C)=Cc1cc(C)c2c(O)cc(C)c3c2c1C(C)=C(O)C3=O | 20.7 µM (inactive) | 24.9 µM (inactive) | 36.6 µM (inactive) | 27.5 µM (inactive) | 31.5 µM (inactive) | 21.5 µM (inactive) | 26.5 µM (inactive) | 18.3 µM (inactive) | 22.9 µM (inactive) | 28.9 µM (inactive) | 22.4 µM (inactive) | 23 µM | 38.1 µM (inactive) | 21.2 µM (inactive) | < 0.01 µM (active) | 32.7 µM (inactive) | 28.1 µM (inactive) | 21.2 µM (inactive) | – | –
2 | CCOC(=O)[C@H]1O[C@@H]1C(=O)NC(CC(C)C)C(=O)NCCC(C)C (stereo partly drawn) | > 100 µM (inactive) | > 100 µM (inactive) | > 100 µM (inactive) | > 100 µM (inactive) | > 100 µM (inactive) | > 100 µM (inactive) | > 100 µM (inactive) | > 100 µM (inactive) | – | > 100 µM (inactive) | > 100 µM (inactive) | > 100 µM | > 100 µM (inactive) | > 100 µM (inactive) | > 100 µM (inactive) | > 100 µM (inactive) | > 100 µM (inactive) | > 100 µM (inactive) | > 100 µM (inactive) | –
3 | Cc1ccc(/N=N/c2c(C)c(C#N)c(=S)n(C3OC(CO)C(O)C(O)C3O)c2-c2ccccc2)cc1 (stereo not drawn) | 24.9 µM (inactive) | 40 µM (inactive) | 28.1 µM (inactive) | 31.3 µM (inactive) | 15.6 µM (inactive) | – | 6.18 µM (inactive) | – | 19.5 µM (inactive) | 34.1 µM (inactive) | 14.6 µM (inactive) | 21.9 µM | – | 22.4 µM (inactive) | 11.5 µM (inactive) | 33.5 µM (inactive) | 28.5 µM (inactive) | 27.7 µM (inactive) | 24.9 µM (inactive) | 17.8 µM (inactive)
4 | CCOC(=O)C(NC(=O)c1ccccc1)(Nc1ccc(S(=O)(=O)Nc2ncccn2)cc1)C(F)(F)F (stereo not drawn) | > 100 µM (inactive) | > 100 µM (inactive) | > 100 µM (inactive) | > 100 µM (inactive) | > 100 µM (inactive) | > 100 µM (inactive) | > 100 µM (inactive) | – | > 100 µM (inactive) | 0.513 µM (active) | > 100 µM (inactive) | > 100 µM | > 100 µM (inactive) | > 100 µM (inactive) | > 100 µM (inactive) | > 100 µM (inactive) | > 100 µM (inactive) | > 100 µM (inactive) | > 100 µM (inactive) | > 100 µM (inactive)
5 | COCCn1cnc2c(Cl)nc(Nc3ccccc3)nc21 | 59.7 µM (inactive) | 27.7 µM (inactive) | 36.7 µM (inactive) | 21.2 µM (inactive) | 32.3 µM (inactive) | > 100 µM (inactive) | 18.1 µM (inactive) | – | 17.7 µM (inactive) | 37.2 µM (inactive) | 26.3 µM (inactive) | 22.9 µM | 23.9 µM (inactive) | 29.8 µM (inactive) | 19.3 µM (inactive) | – | > 100 µM (inactive) | 82.4 µM (inactive) | > 10 µM (inactive) | 20.9 µM (inactive)
6 | N#C/C(=C1\N=C(c2ccccc2O)Oc2ccccc21)c1ccc([N+](=O)[O-])cc1 | 33.8 µM (inactive) | > 100 µM (inactive) | > 100 µM (inactive) | 88.9 µM (inactive) | > 100 µM (inactive) | > 100 µM (inactive) | > 100 µM (inactive) | – | > 100 µM (inactive) | > 100 µM (inactive) | > 100 µM (inactive) | > 100 µM | > 100 µM (inactive) | > 100 µM (inactive) | > 100 µM (inactive) | > 100 µM (inactive) | 66.5 µM (inactive) | > 100 µM (inactive) | > 100 µM (inactive) | > 100 µM (inactive)
7 | CNc1cc(N)ccc1C(=O)N1CCC[C@H]1CO | > 100 µM (inactive) | > 100 µM (inactive) | > 100 µM (inactive) | > 100 µM (inactive) | > 100 µM (inactive) | 27.3 µM (inactive) | > 100 µM (inactive) | > 100 µM (inactive) | > 100 µM (inactive) | > 100 µM (inactive) | > 100 µM (inactive) | > 100 µM | > 100 µM (inactive) | > 100 µM (inactive) | – | > 100 µM (inactive) | > 100 µM (inactive) | > 100 µM (inactive) | – | –
8 | CNC(=O)OCC1=C(COC(=O)NC)CN(c2ccc(OC)cc2)C1 | > 100 µM (inactive) | > 100 µM (inactive) | > 100 µM (inactive) | > 100 µM (inactive) | > 100 µM (inactive) | 4.2 µM (inactive) | > 100 µM (inactive) | – | > 100 µM (inactive) | > 100 µM (inactive) | > 100 µM (inactive) | > 100 µM | > 100 µM (inactive) | > 100 µM (inactive) | > 100 µM (inactive) | 80.9 µM (inactive) | > 100 µM (inactive) | > 100 µM (inactive) | > 100 µM (inactive) | > 100 µM (inactive)
9 | CCOC(=O)c1nc2ccc(C(F)(F)F)cc2[nH]c1=O | > 100 µM (inactive) | > 100 µM (inactive) | > 100 µM (inactive) | > 100 µM (inactive) | > 100 µM (inactive) | > 100 µM (inactive) | > 100 µM (inactive) | – | > 100 µM (inactive) | > 100 µM (inactive) | > 100 µM (inactive) | > 100 µM | > 100 µM (inactive) | > 100 µM (inactive) | > 100 µM (inactive) | > 100 µM (inactive) | > 100 µM (inactive) | > 100 µM (inactive) | – | > 100 µM (inactive)
10 | CC(=O)Oc1ccc2cc(-c3ccccc3OC(C)=O)c(=O)oc2c1 | 54.1 µM (inactive) | 82.8 µM (inactive) | > 100 µM (inactive) | – | 64.6 µM (inactive) | 27.7 µM (inactive) | 10.9 µM (inactive) | 4.3 µM (inactive) | 53.7 µM (inactive) | – | 51.4 µM (inactive) | 33.7 µM | 62.4 µM (inactive) | 25.7 µM (inactive) | 6.15 µM (inactive) | 4.97 µM (inactive) | 59.3 µM (inactive) | 86.5 µM (inactive) | 34.3 µM (inactive) | –
11 | C/C=C1/CN2CCC34c5ccccc5N(C)C23C2CC1C4(C(=O)OC)C(O)O2 (stereo not drawn) | > 100 µM (inactive) | > 100 µM (inactive) | > 100 µM (inactive) | > 100 µM (inactive) | > 100 µM (inactive) | > 100 µM (inactive) | > 100 µM (inactive) | > 100 µM (inactive) | > 100 µM (inactive) | > 100 µM (inactive) | > 100 µM (inactive) | > 100 µM | > 100 µM (inactive) | > 100 µM (inactive) | > 100 µM (inactive) | > 100 µM (inactive) | > 100 µM (inactive) | > 100 µM (inactive) | – | –
